Source: patent US20090029954A1, “PROGESTERONE-RECEPTOR ANTAGONIST FOR USE IN BRCA ALONE OR AS COMBINATION WITH ANTIESTROGEN” (priority 2007, published 2009)
Read-outs that look alike come from different tables or passages of the source. Values belong to the molecule of their own block, whether it stands above or below them.

Legend:
progesterone receptor [1] = biological target: T1, progesterone receptor (Homo sapiens, UniProt P06401); test: Endocrine profile of the progesterone-receptor antagonist
T1 sequence (P06401 1-933): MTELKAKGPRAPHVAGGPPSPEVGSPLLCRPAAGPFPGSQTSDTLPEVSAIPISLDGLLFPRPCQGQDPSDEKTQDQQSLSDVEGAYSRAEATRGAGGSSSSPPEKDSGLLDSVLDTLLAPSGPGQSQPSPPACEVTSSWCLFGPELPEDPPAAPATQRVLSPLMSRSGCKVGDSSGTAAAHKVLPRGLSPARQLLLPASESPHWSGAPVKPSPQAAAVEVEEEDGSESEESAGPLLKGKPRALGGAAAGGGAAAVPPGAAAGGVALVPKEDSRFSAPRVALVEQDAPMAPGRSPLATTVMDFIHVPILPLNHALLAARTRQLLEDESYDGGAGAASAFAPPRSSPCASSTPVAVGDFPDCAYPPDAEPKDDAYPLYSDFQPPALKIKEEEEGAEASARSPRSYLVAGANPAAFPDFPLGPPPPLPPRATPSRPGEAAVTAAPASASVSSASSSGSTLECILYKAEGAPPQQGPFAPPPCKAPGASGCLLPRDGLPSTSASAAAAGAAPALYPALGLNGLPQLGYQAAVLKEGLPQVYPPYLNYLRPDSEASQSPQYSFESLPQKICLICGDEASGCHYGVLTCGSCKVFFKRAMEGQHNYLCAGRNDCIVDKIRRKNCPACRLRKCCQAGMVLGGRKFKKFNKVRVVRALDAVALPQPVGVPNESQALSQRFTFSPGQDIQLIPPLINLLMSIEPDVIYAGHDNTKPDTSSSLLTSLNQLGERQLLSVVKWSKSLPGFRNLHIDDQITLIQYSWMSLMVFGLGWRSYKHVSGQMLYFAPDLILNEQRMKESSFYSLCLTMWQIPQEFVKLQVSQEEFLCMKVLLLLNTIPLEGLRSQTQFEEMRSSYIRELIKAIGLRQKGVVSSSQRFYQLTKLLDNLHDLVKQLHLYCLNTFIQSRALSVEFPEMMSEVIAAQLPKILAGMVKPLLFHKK

tumor cells = test: Apoptosis of tumor cells
progesterone receptor [2] = biological target: T1, progesterone receptor; conditions: Fuhrmann et al., J. Med. Chem. 2000; cited from earlier work
[3] = tested on: MCF-10 mammary cells and T47D breast cancer cells with BRCA1 and BRCA2 knock down; test: Growth of breast cells with siRNA BRCA1/BRCA2 knock down (Example 1); type: cell-based
Experimental: (§1) MCF-10 mammary cells and T47D breast cancer cells obtained from ATCC were treated with siRNA knocking down the BRCA1 and BRCA2 gene.
(§2) Cell growth in comparison to untransfected and mock transfected cells was compared. In a second step cells were stimulated either with progesterone and/or with estrogens. […] The effects on progesteron receptor protein expression were further investigated.

progesterone receptor [4] = biological target: T1, progesterone receptor; test: Progesterone receptor protein expression/stability after siRNA BRCA1 knock down (Example 3); type: cell-based
Experimental: (§3) MCF-10 mammary cells obtained from ATCC were treated with siRNA knocking down the BRCA1 and BRCA2 gene.
as §2

[5] = tested on: BRCA1-, respectively BRCA2-mediated mammary carcinogenesis; test: Mammary tumor formation in transgenic mice with breast-specific inactivation of p53 and BRCA1/BRCA2 (Example 2); type: in vivo; conditions: mice monitored weekly for tumor formation; placebo group median tumor latency 6.6 months
Description: To address the specific roles of progesterone receptors in BRCA1- and BRCA2-mediated tumorigenesis, transgenic mice with an organ specific inactivation of p53 and BRCA1, respectively BRCA2 in the breast tissue have been studied. Inactivation of both BRCA1, respectively BRCA2 and p53 or c-myc genes in the mouse mammary gland mimics the majority of human BRCA1-associated tumors, which also harbor p53 mutations.
Because progesterone is a potent mitogen for BRCA1, respectively BRCA2 p53 or c-myc Crec mammary epithelial cells, it was tested whether blockade of the progesterone receptor activity by the progesterone receptor antagonist 11β-(4-acetylphenyl)-17β-hydroxy-17α-(1,1,2,2,2-pentafluoroethyl)-estra-4,9-dien-3-one could prevent or delay mammary carcinogenesis. Mice were treated with a placebo or with 11β-(4-acetylphenyl)-17β-hydroxy-17α-(1,1,2,2,2-pentafluoroethyl)-estra-4,9-dien-3-one. The mice were monitored weekly for tumor formation. The median tumor latency of was 6.6 months for the placebo control group with all mice developing palpable tumors.

progesterone receptor [6] = biological target: T1, progesterone receptor; test: Progesterone receptor protein expression/stability after siRNA BRCA1 knock down (Example 1); type: cell-based
Experimental: as §1, §2

[7] = tested on: MCF-10 mammary cells with BRCA1 and BRCA2 knock down; test: Growth of MCF-10 cells with siRNA BRCA1/BRCA2 knock down (Example 3); type: cell-based; conditions: co-treatment; MCF-10 siRNA knock down cells stimulated with progesterone and/or estrogens
Experimental: as §3, §2

Bioavailability = type: in vivo; conditions: compared to ICI 182,780
[8] = administered orally; cited from earlier work
[9] = tested on: mammary tumors in Brca1/p53-deficient model; conditions: mice with BRCA1- or BRCA2 inactivated in mammary glands; Poole et al., Science 2006; cited from earlier work

increased stability of progesterone receptor after BRCA1 knock down (progesterone receptor [4]): could be antagonized | increased stability of progesterone receptor after BRCA1 knock down (progesterone receptor [6]): could be antagonized
SMILES: CC(=O)c1ccc(C2C[C@@]3(C)[C@@H](CC[C@@]3(O)C(F)(F)C(F)(F)F)[C@@H]3CCC4=CC(=O)CCC4=C23)cc1 (stereo partly drawn) [11β-(4-acetylphenyl)-17β-hydroxy-17α-(1,1,2,2,2-pentafluoroethyl)-estra-4,9-dien-3-one]
endocrine side effects (androgen, estrogen or antiglucocorticoid activity) (progesterone receptor [1]): only very weak or no endocrine side effects | apoptosis of tumor cells (tumor cells): increased apoptosis of tumor cells | antiprogestagenic activity (progesterone receptor [2]): high antiprogestagenic activity | other endocrinological effects (progesterone receptor [2]): little or no other endocrinological effects | inhibition of the growth of BRCA1 knock down cells ([3]; Example 1): potent inhibition | antagonism of the effects of BRCA1 knock down (increased proliferation in the presence of progesterone) ([3]; co-treatment, siRNA knock down cells stimulated with progesterone and/or estrogens): able to antagonize the effects of BRCA1 knock down | palpable tumors [5]: no palpable tumors were detected | antagonism of the effects of BRCA1 knock down (increased proliferation in the presence of progesterone) [7]: able to antagonize the effects of BRCA1 knock down

bioavailability (Bioavailability): particularly high bioavailability
SMILES: CN(CCCCCCCC(F)(F)C(F)(F)F)CCCCCC1Cc2cc(O)ccc2C2C(F)CC3(C)C(CCC3(C)O)C12 (stereo not drawn) [11β-Fluoro-17α-methyl-7α-{5-[methyl(8,8,9,9,9-pentafluorononyl)-amino]pentyl}-estra-1,3,5(10)-triene-3,17β-diol]

SMILES: CC#C[C@]1(O)CC[C@H]2[C@@H]3CCC4=CC(=O)CCC4=C3[C@@H](c3ccc(N(C)C)cc3)C[C@@]21C [mifepristone]
bioavailability [8]: poor bioavailability | development of mammary tumors [9]: blocks the development of mammary tumors
